Reference: patent publication US20130022635A1, “Expression Modulator For Clock Gene Bmal” (SHISEIDO COMPANY, LTD., priority 2010, published 2013)

Assays:
[1] = system: Period1 gene; experiment: Period1 gene expression in cultured skin fibroblastic cells; assay type: cell-based, human
Protocol: As the cultured human fibroblastic cells, fibroblastic cells from normal human skin were purchased (Cell Application, Inc.) and used in the experiments. They were inoculated in DMEM medium supplemented with 10% FBS, 20 mM HEPES, Glutamax and antibacterial agents and cultured at 37° C. in 5% CO2. On the 6th day of culture, 50 ng/mL of cortisol or 10 μM of forskolin was added, and the samples were harvested at various times after time 0, which was defined as the time immediately after the addition of cortisol or forskolin. RNA was extracted from the cells with a commercially available RNA extraction kit, and the amounts of expression of the intended genes were measured by RT-PCR technology using commercially available PCR primers (Perfect Real Time Primer, Takara Bio). As for clock genes, amounts of expression of Period (represented by Period1) and Bmal1, which are involved in the core system, were determined. Similarly, the amounts of expression of a housekeeping gene RPLP0 were quantified and used as an internal standard to calculate the relative expression of the intended genes to RPLP0. […]

[2] = system: Bmal1 gene; experiment: Bmal1 gene expression (RT-PCR, relative to RPLP0) in cultured human skin fibroblastic cells; assay type: cell-based; details: expression at 2 and 16 hours after stimulation
Protocol: As the cultured human fibroblastic cells, fibroblastic cells from normal human skin were purchased (Cell Application, Inc.) and used in the experiments. They were inoculated in DMEM medium supplemented with 10% FBS, 20 mM HEPES, Glutamax and antibacterial agents and cultured at 37° C. in 5% CO2. On the 6th day of culture, 50 ng/mL of cortisol or 10 μM of forskolin was added, and the samples were harvested at various times after time 0, which was defined as the time immediately after the addition of cortisol or forskolin. RNA was extracted from the cells with a commercially available RNA extraction kit, and the amounts of expression of the intended genes were measured by RT-PCR technology using commercially available PCR primers (Perfect Real Time Primer, Takara Bio). As for clock genes, amounts of expression of Period (represented by Period1) and Bmal1, which are involved in the core system, were determined. Similarly, the amounts of expression of a housekeeping gene RPLP0 were quantified and used as an internal standard to calculate the relative expression of the intended genes to RPLP0. […] Test substances were evaluated for the expression modulating effect on a Bmal gene based on the amount of gene expression at 16 hours after stimulation. […]

| SMILES | Induction of Period gene expression rhythm or promotion of its expression (in words) [1] | Induction of Bmal1 expression rhythm and increase of Bmal1 gene expression (in words) [2] |
| --- | --- | --- |
| C=C1CC/C=C(\C)CC[C@@H]2[C@@H]1CC2(C)C [beta-Caryophyllene] | can induce expression rhythm of a Period gene or promote its expression |  |
| C[C@]12CCC(=O)C=C1CC[C@@H]1[C@@H]2[C@@H](O)C[C@@]2(C)[C@H]1CC[C@]2(O)C(=O)CO [cortisol] |  | significantly increase amounts of gene expression of Bmal1 |
